According to BindingDB's records for doi:10.1016/j.bmc.2014.04.022 (Tohoku Pharmaceutical University, 2014):
pEC50, pIC50: −log10 of the molar value.

Experiments:
[1] = Agonist activity at estrogen receptor in human MCF7 cells assessed as induction of cell proliferation after 5 days by WST-8 assay
[2] = Antagonist activity at estrogen receptor in human MCF7 cells assessed as inhibition of estradiol-induced cell proliferation after 5 days by WST-8 assay

With `CN(C)CCOc1ccc(C23CC4CC(CC(c5ccc(O)cc5)(C4)C2)C3)cc1` the pEC50 [1] was 7.80 and the pIC50 [2] was 5.97.
